In paper PMC11637875, “Discovery of novel PARP1/NRP1 dual-targeting inhibitors with strong antitumor potency” (Frontiers in Pharmacology, 2024):
Read-outs that look alike come from different tables or passages of the source.

What was measured:
PARP1 [1] = biological target: T1, PARP1 (Homo sapiens, UniProt P09874); experiment: Microscale thermophoresis (MST) assay; assay type: binding; settings: labeled protein 50 nM; for Kd: read-out: PARP1 (K d)
T1 construct: purchased Abcam
Procedure: (§1) All samples were diluted in 1 × PBST. […] Affinity Analysis software.

NRP1 [2] = biological target: T2, NRP1 (Homo sapiens, UniProt O14786); experiment: Microscale thermophoresis (MST) assay; assay type: binding; settings: labeled protein 50 nM; for Kd: read-out: NRP1 (K d)
T2 construct: purchased Abcam
T2 sequence (O14786 22-644 isoform O14786-2 limits assumed): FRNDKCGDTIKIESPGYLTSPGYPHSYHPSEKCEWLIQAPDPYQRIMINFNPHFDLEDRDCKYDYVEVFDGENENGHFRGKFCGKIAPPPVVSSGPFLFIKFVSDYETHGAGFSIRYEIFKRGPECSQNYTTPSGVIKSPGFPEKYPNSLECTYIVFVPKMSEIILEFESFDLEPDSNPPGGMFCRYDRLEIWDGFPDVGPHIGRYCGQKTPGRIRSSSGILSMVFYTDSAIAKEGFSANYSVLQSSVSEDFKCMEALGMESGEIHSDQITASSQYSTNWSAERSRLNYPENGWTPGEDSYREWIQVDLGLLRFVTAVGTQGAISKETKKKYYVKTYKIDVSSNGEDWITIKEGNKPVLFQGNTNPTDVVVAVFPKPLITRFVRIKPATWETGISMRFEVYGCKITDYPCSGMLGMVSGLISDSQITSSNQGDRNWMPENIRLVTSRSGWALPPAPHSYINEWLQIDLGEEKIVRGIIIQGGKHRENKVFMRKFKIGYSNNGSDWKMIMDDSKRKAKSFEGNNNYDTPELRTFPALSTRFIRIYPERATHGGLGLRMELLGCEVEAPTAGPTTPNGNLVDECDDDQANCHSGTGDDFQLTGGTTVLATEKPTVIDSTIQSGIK
Procedure: as §1

NRP1 [3] = biological target: T3, NRP1 (Homo sapiens, UniProt O14786); experiment: In vitro NRP1 inhibition assay (125I-VEGF-A binding displacement, NRP1-transfected HUVEC cells); settings: 125I-VEGF-A165 binding competition, 2 h, 4°C
T3 construct: expressed in transfected cells; host or cells: HUVEC, adenovirus NRP1
Procedure: The method was performed as described previously ([Jarvis et al., 2010]). Radiolabeled binding displacement experiments were performed as described previously ([Jia et al., 2006]). Confluent adenovirus NRP1-transfected HUVEC cells in 96-well plates were washed twice with PBS. At 4°C various concentrations of compounds diluted in binding medium (Dulbecco’s modified Eagle’s medium, 25 mM HEPES, pH 7.3, containing 0.1% BSA) were added, followed by addition of the indicated concentration of ^125I-VEGF-A (1,200–1800 Ci/mmol, GE Healthcare, United Kingdom). After 2 h of incubation at 4°C, the medium was aspirated, and washed four times with cold phosphate-buffered saline. The cells were lysed with 0.25 M NaOH, 0.5% SDS solution, and the bound radioactivity of the lysates was measured. IC50 values were calculated from the competition curves of the compounds in the ^125I-VEGF-A165 binding assay using GraphPad Prism 9 software. Using log(inhibitors) vs response-Variable slope equation in the GraphPad Prism 9 to fit the curves. The equation was as follows: (Top and Bottom are the responses, respectively, at the top and bottom of the curve, Y is the inhibitory response at a given compound concentration X, and the Hillslope describes the steepness of the curve.) Y=Bottom+Top−Bottom/1+10^logIC50−xHillslope
T3 sequence (O14786 22-923): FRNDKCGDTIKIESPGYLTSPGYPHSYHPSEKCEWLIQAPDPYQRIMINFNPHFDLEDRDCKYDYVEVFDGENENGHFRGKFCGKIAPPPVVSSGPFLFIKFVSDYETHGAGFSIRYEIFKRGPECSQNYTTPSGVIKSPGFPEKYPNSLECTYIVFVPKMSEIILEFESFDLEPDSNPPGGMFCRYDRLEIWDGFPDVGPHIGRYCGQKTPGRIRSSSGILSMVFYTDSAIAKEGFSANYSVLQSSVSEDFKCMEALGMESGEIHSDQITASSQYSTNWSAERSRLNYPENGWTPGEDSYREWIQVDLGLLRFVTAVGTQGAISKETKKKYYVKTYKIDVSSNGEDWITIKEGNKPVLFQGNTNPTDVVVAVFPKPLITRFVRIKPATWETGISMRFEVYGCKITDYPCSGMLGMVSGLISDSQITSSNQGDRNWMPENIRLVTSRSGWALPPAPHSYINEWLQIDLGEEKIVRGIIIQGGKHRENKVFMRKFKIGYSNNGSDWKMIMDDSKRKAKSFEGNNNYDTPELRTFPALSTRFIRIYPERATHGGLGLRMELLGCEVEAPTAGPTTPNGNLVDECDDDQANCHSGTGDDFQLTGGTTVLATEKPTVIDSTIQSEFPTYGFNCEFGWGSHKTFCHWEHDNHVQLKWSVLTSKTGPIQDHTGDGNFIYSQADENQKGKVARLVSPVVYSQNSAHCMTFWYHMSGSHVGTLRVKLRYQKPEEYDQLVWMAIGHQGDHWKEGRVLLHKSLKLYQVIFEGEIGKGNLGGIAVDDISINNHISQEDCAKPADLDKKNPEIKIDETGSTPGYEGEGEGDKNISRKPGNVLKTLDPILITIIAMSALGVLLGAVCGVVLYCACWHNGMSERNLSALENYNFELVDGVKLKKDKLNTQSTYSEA

PARP1 [4] = biological target: T1, PARP1; experiment: In vitro PARP1 inhibition assay (chemiluminescence); assay type: biochemical; settings: PARP1 enzyme 0.6 units/well
Procedure: In each well, 50 μL of 1 × PARP1 buffer was added and incubated for 30 min at room temperature. The 1 × PARP1 buffer was removed from the wells, and then 25 μL of 1 × PARP1 cocktail was added to each well along with varying doses of compounds and PARP1 enzyme (0.6 units/well). Incubated and washed twice with PBS and 0.1% Triton X-100. Then added 50 μL Strep-HRP and washed twice. Equal volumes (100 μL) of PeroxyGlow A and B were added to each well and immediately take chemiluminescent readings. Data were analyzed by GraphPad Prism 9 software based on chemiluminescence readings of chemiluminescent substrates of Strep-HRP in each well. The IC50 value was were calculated by nonlinear curve fitting in GraphPad Prism 9.

[5] = tested on: MDA-MB-231 xenograft tumor; experiment: In vivo antitumor assay; parameters: species or system BALB/c nude mice; settings: 5 mg/kg intraperitoneally every 3 days, n = 6
Procedure: Twenty-four female BALB/c nude mice (body weight 16–20 g) at 4–6 weeks old were purchased from Changzhou Cavens Experimental Animal Limited Company (Changzhou, China). Mice were adaptively housed for 1 week in a specific pathogen-free (SPF) environment with a temperature of 25°C ± 2°C, a 12-hour light/dark cycle, and free access to food and water. MDA-MB-231 breast cancer cells (200 μL, 1×10^7 cells) were suspended in PBS to formulate cell suspension, and 0.1 mL of cells were injected into the axilla of the left forelimb of mice by subcutaneous injection. […] Equal concentrations of drug-free PBS buffer were used for the vehicle group. Each group was administered every 3 days and the body weight and tumor size of the mice were recorded. Mice were executed when the tumor volume approached 2000 mm^3. Tumor volumes of all mice were measured using vernier calipers. The mice were placed belly up and the longest diameter of the tumor was measured with the inner bayonet of a vernier caliper, and the shortest transverse diameter perpendicular to the diameter was measured with the inner bayonet of a vernier caliper and recorded. Tumor volume was estimated according to the following formula: (c × c × d)/2 (c, the smallest diameter; d, the largest diameter). All animal experiments were performed and approved by the Ethics Committee of China Pharmaceutical University.

MDA-MB-231 cells = experiment: In vitro antiproliferation assay (MTT); assay type: cell-based; settings: Homo sapiens
Procedure: Cell viability was measured by MTT assays. […] Afterward, the medium was removed. MTT (5 mg/mL) was dissolved in phosphate-buffered saline (PBS) and filter-sterilized, and then, 20 μL of the prepared MTT solution was added to each well, and the cells were incubated for another 4 h until a purple precipitate was visible. The supernatant was removed by centrifugation, and DMSO (150 μL/well) was added to dissolve the insoluble crystals. The absorbance was determined using an enzyme-linked immunosorbent assay reader at a test wavelength of 570 nm. The assays were performed three times in a parallel manner. The non-linear regression was used to plot a Dose-Response-Inhibition to determine the value of the IC50. […] The data were analyzed using GraphPad Prism 9 software.

[6] = 168 h, MDA-MB-231, concentration needed to reduce cell growth by 50% following 7 days cell treatment, read-out: IC50

T1 sequence (P09874 whole entry): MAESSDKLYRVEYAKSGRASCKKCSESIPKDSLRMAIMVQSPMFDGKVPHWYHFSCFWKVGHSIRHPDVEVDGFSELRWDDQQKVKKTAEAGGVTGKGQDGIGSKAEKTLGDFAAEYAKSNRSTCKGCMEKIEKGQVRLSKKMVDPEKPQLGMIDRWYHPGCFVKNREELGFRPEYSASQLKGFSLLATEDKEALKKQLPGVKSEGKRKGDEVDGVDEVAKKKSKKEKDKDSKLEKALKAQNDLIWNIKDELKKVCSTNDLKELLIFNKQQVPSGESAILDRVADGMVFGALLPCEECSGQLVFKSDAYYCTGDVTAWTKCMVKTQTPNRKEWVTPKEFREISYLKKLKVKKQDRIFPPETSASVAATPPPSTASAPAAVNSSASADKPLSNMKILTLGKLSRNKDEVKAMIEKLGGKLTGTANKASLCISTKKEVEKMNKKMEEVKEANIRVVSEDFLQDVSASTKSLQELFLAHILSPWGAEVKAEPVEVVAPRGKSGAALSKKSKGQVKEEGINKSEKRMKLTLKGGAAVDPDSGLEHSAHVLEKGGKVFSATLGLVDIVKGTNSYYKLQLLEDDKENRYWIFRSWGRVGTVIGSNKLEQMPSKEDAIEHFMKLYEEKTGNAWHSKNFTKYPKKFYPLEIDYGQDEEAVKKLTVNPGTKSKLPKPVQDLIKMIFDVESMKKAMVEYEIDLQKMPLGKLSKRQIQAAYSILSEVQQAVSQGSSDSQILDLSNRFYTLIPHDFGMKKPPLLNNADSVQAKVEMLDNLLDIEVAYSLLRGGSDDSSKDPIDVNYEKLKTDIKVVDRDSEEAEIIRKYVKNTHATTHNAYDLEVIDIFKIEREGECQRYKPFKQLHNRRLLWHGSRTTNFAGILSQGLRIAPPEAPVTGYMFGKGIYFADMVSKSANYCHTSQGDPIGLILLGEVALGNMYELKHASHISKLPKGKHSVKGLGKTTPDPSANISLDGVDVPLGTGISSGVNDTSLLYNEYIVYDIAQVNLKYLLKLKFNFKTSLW

Structure (SMILES) | PARP1 (K d, nM) (PARP1 [1]) | Kd (NRP1 [2]) [nM] | IC50 (NRP1 [3]) [nM] | PARP1 (IC50, nM) (PARP1 [4]) | body weight (g) in mice, mean ([5]; day 0) [g] | tumor volume (mm^3), mean ([5]; day 0) [mm^3] | body weight (g) in mice, mean ([5]; day 3) [g] | tumor volume (mm^3), mean ([5]; day 3) [mm^3] | body weight (g) in mice, mean ([5]; day 6) [g] | tumor volume (mm^3), mean ([5]; day 6) [mm^3] | body weight (g) in mice, mean ([5]; day 9) [g] | tumor volume (mm^3), mean ([5]; day 9) [mm^3] | body weight (g) in mice, mean ([5]; day 12) [g] | tumor volume (mm^3), mean ([5]; day 12) [mm^3] | IC50 (MDA-MB-231 cells; [6]) [nM] | NRP1 (K d, nM) (NRP1 [2]) | NRP1 (IC50, nM) (NRP1 [3]) | IC50 (MDA-MB-231 cells; MDA-MB-231, 168 h) [nM] | Kd (PARP1 [1]) [nM] | IC50 (PARP1 [4]) [nM]
NC(N)=NCCC[C@H](NC(=O)c1sccc1NS(=O)(=O)c1cccc2nsnc12)C(=O)O [EG00229] | no binding | 519 | 640 ± 34.7 | No inhibition | 18.38 | 101 | 18.51 | 275 | 18.84 | 502 | 19.19 | 976 | 19.52 | 1352 | 62400 | – | – | – | – | –
O=C(c1cc(Cc2n[nH]c(=O)c3ccccc23)ccc1F)N1CCN(C(=O)C2CC2)CC1 [Olaparib, olaparib] | – | – | – | – | 18.29 | 103 | 18.55 | 245 | 19.12 | 329 | 19.37 | 513 | 19.59 | 733 | – | no binding | No inhibition | 960 | – | –
NC(N)=NCCC[C@H](NCNCCNC(=O)c1cc(Cc2n[nH]c(=O)c3ccccc23)ccc1F)C(=O)O [PPNR-1] | – | 91.5 | 94.1 ± 4.24 | – | – | – | – | – | – | – | – | – | – | – | 890 | – | – | – | 75.1 | 70.3 ± 3.13
NC(N)=NCCC[C@H](NCN1CCCN(C(=O)c2cc(Cc3n[nH]c(=O)c4ccccc34)ccc2F)C1)C(=O)O [PPNR-2] | – | 31 | 31.2 ± 3.95 | – | – | – | – | – | – | – | – | – | – | – | 560 | – | – | – | 28.4 | 29.3 ± 2.57
NC(N)=NCCC[C@H](NC/C=C/CNC(=O)c1cc(Cc2n[nH]c(=O)c3ccccc23)ccc1F)C(=O)O [PPNR-3] | – | 71.3 | 72.9 ± 3.41 | – | – | – | – | – | – | – | – | – | – | – | 830 | – | – | – | 61.1 | 63.2 ± 4.02
CN(CCNC(=O)c1cc(Cc2n[nH]c(=O)c3ccccc23)ccc1F)CN[C@@H](CCCN=C(N)N)C(=O)O [PPNR-5] | – | 55.3 | 57.1 ± 3.27 | – | – | – | – | – | – | – | – | – | – | – | 720 | – | – | – | 40 | 41.4 ± 2.86
